Drawing on ChEMBL document CHEMBL5223130, “Targeting SARS-CoV-2 Main Protease for Treatment of COVID-19: Covalent Inhibitors Structure-Activity Relationship Insights and Evolution Perspectives” (J Med Chem, 2022), this text covers EC50 for three compounds.

Experiment [1] has as its system SARS-CoV-2. Type of experiment: functional, organism-based, Vero E6. The settings on record: Severe acute respiratory syndrome coronavirus 2, 107, Vero C1008.
The subject of experiment [2] is SARS-CoV-2. Type of experiment: functional, organism-based, Vero E6. The settings on record: Severe acute respiratory syndrome coronavirus 2, Vero C1008.

Turning to `COc1ccc(OCC(=O)N2C[C@H]3[C@@H]([C@H]2C(=O)N[C@H](C=O)C[C@@H]2CCNC2=O)C3(C)C)cc1`, the EC50 (as a rule, the concentration at which the effect is half-maximal) in the experiment with SARS-CoV-2 [1] came to 860 nM.

`O=C[C@H](C[C@@H]1CCNC1=O)NC(=O)[C@@H]1[C@H]2CCC[C@H]2CN1C(=O)COc1ccc(Cl)cc1Cl` had an EC50 in the experiment on SARS-CoV-2 [1] of 540 nM. Take `O=c1c(O)c(-c2cc(O)c(O)c(O)c2)oc2cc(O)cc(O)c12` [MYRICETIN]: in the experiment with SARS-CoV-2 [2], the concentration giving a half-maximal response (EC50) was determined as 8000 nM.
